Measured values from patent US20230391785A1, “NITROGEN-CONTAINING HETEROCYCLIC COMPOUND, METHOD FOR PREPARING SAME AND USE OF SAME” (280 Bio, Inc., priority 2021, published 2023).
Where two headings read alike, the source gives them in different places.

Columns and labels:
Assay type in all cases: cell-based
[1] = system: NCI-H358 cells (KRAS G12C mutation); assay: Proliferation inhibition measured by CTG (CellTiter Glo), NCI-H358; conditions: Homo sapiens
Description: (§1) NCI-H358 is a human non-small cell lung cancer cell line with KRAS G12C mutation; PANC-1 and AsPC-1 are pancreatic cancer cell lines with KRAS G12D mutation; AGS is a gastric cancer cell line with KRAS G12D mutation; A427 is a lung cancer cell line with KRAS G12D mutation; THP-1 is a leukemia cell line with NRAS G12D mutation; Hs 578T is a breast cancer cell line with HRAS G12D mutation; SW480 is a colon cancer cell lines with KRAS G12V mutation; A375 is a wild type malignant melanoma cell line. The proliferation inhibitory effect of the compounds on various mutations was evaluated by determining the proliferation inhibitory activity of the compounds on these cell lines.
(§2) The assay was conducted on either 384-well plates or 96-well plates. The procedures are as follows:
(§3) The cell suspensions were added to 384- or 96-well plates (384-well plate: 40 μL; 96-well plate: […]) except for peripheral wells. The plates were incubated in a carbon dioxide incubator overnight. Prepared compounds (10 concentration gradients by serial 3-fold dilution) were added to the wells. The cell plates were incubated in a carbon dioxide incubator for 120 hours. CellTiter Glo reagent (384 well plate: 25 μL; 96 well plate: 100 μL) was added to the 384- or 96-well plates. The plates were shaken for 10 minutes away from light, and incubated for 10 minutes. The plates were read by EnVision system. Inhibition curves were plotted using XLFit and IC50 values were calculated. “IC50>10 μM” is denoted by “*”, “10 μM≥IC50>1 μM” is denoted by “**”, “1 μM≥IC50>100 nM” is denoted by “***”, and “IC50≤100 nM” is denoted by “****”.

[2] = system: AsPC-1 pancreatic cancer cell line (KRAS G12D mutation); assay: Proliferation inhibition measured by CTG (CellTiter Glo), AsPC-1; conditions: Homo sapiens, ASPC1
Description: as §1, §2, §3

[3] = system: A375 wild type malignant melanoma cell line; assay: Proliferation inhibition measured by CTG (CellTiter Glo), A375; conditions: Homo sapiens, A-375
Description: as §1, §2, §3

[4] = system: AGS gastric cancer cell line (KRAS G12D mutation); assay: Proliferation inhibition measured by CTG (CellTiter Glo), AGS; conditions: CTG, 120 hours incubation
Description: as §1, §2, §3

[5] = system: Hs 578T breast cancer cell line (HRAS G12D mutation); assay: Proliferation inhibition measured by CTG (CellTiter Glo), Hs 578T; conditions: Homo sapiens, Table 1, CTG, 120 hours incubation, class symbol
Description: as §1, §2, §3

[6] = system: THP-1 leukemia cell line (NRAS G12D mutation); assay: Proliferation inhibition measured by CTG (CellTiter Glo), THP-1; conditions: Homo sapiens, Table 1, CTG, 120 hours incubation, class symbol
Description: as §1, §2, §3

[7] = system: SW480 colon cancer cell line (KRAS G12V mutation); assay: Proliferation inhibition measured by CTG (CellTiter Glo), SW480; conditions: Homo sapiens, Table 3, 120 hours incubation, class symbol, read-out: IC50 (SW480)
Description: as §1, §2, §3

[8] = Table 1, CTG, 120 hours incubation, class symbol, read-out: IC50 (H358)
[9] = Table 1, CTG, 120 hours incubation, class symbol
[10] = Table 1, CTG, 120 hours incubation, class symbol, read-out: IC50 (A375)
[11] = Table 1, class symbol, read-out: IC50 (AGS)
[12] = Table 3, CTG, 120 hours incubation, class symbol, read-out: IC50 (H358)
[13] = Table 3, class symbol, read-out: IC50 (AGS)
[14] = Table 3, CTG, 120 hours incubation, class symbol, read-out: IC50 (A375)

IC50 [1, 8] [µM] | IC50 [2, 9] [µM] | IC50 [3, 10] [µM] | IC50 [4, 11] [nM] | IC50 [5] [nM] | IC50 [6] [nM] | Compound | also measured
> 10 | > 10 | > 10 | – | – | – | CN1CCC[C@H]1COc1nc2c(c(N3CCc4cnoc4C3)n1)CCN(c1cccc3cccc(Cl)c13)C2 [Comparative compound 1′, reference compound] | IC50 ([1]; Table 1, number in parentheses, no unit printed in Table 1 (Table 2 gives the same values of compound 2 in μM), read-out: IC50 (H358)): 17.2 µM; IC50 ([2]; Table 1, number in parentheses, unit not given in Table 1 (legend and Table 2 use μM)): 39.7 µM; IC50 ([3]; Table 1, number in parentheses, unit not given in Table 1 (Table 2 gives the same value in μM), read-out: IC50 (A375)): 22.7 µM
0.1 to 1 | 1 to 10 | 1 to 10 | – | – | – | CN1CCC[C@H]1COc1nc2c(c(N3CCn4cncc4C3)n1)CO[C@H](c1cccc3cccc(Cl)c13)C2 [Compound 3] | –
1 to 10 | 1 to 10 | 1 to 10 | – | – | – | Cc1ncc2n1CCN(c1nc(OC[C@@H]3CCCN3C)nc3c1CCN(c1cccc4cccc(Cl)c14)C3)C2 [Compound 5] | –
≤ 0.1 | 0.1 to 1 | 0.1 to 1 | ≤ 100 | 100 to 1000 | 100 to 1000 | CN1CCC[C@@H]1COc1nc2c(c(N3CCn4cncc4C3)n1)CCN(c1cccc3cccc(Cl)c13)C2 [Compound 18] | –
0.1 to 1 | 1 to 10 | 1 to 10 | 100 to 1000 | 1000 to 10000 | 100 to 1000 | CN1CCC(Oc2nc3c(c(N4CCn5cncc5C4)n2)CCN(c2cccc4cccc(Cl)c24)C3)CC1 [Compound 20] | –
≤ 0.1 | 0.1 to 1 | 0.1 to 1 | ≤ 100 | 100 to 1000 | 100 to 1000 | CN(C)CCCOc1nc2c(c(N3CCn4cncc4C3)n1)CCN(c1cccc3cccc(Cl)c13)C2 [Compound 21] | –
≤ 0.1 | ≤ 0.1 | ≤ 0.1 | ≤ 100 | 100 to 1000 | ≤ 100 | CC1Cn2cncc2CN1c1nc(OC[C@@H]2CCCN2C)nc2c1CCN(c1cccc3cccc(Cl)c13)C2 (stereo partly drawn) [Compound 22] | IC50 ([1]; Table 2, CTG, 120 hours incubation, read-out: IC50 H358 (G12C)): 0.073 µM; IC50 ([4]; Table 2, read-out: IC50 AGS (G12D)): 54 nM; IC50 ([3]; Table 2, CTG, 120 hours incubation, read-out: IC50 A375 (wide type)): 0.096 µM
0.1 to 1 | 0.1 to 1 | 0.1 to 1 | 100 to 1000 | 1000 to 10000 | 100 to 1000 | COC1CN(c2nc(OC[C@@H]3CCCN3C)nc3c2CCN(c2cccc4cccc(Cl)c24)C3)Cc2cncn21 (stereo partly drawn) [Compound 23] | –
0.1 to 1 | 1 to 10 | 0.1 to 1 | 1000 to 10000 | > 10000 | 100 to 1000 | Clc1cccc2cccc(N3CCc4c(nc(OCC56CCCN5CCC6)nc4N4CCn5cncc5C4)C3)c12 [Compound 24] | –
0.1 to 1 | 0.1 to 1 | 1 to 10 | 100 to 1000 | 1000 to 10000 | 100 to 1000 | CN1CCO[C@H](COc2nc3c(c(N4CCn5cncc5C4)n2)CCN(c2cccc4cccc(Cl)c24)C3)C1 [Compound 27] | –
0.1 to 1 | 0.1 to 1 | 0.1 to 1 | 100 to 1000 | 1000 to 10000 | 100 to 1000 | CN1CC[C@@H](COc2nc3c(c(N4CCn5cncc5C4)n2)CCN(c2cccc4cccc(Cl)c24)C3)C1 [Compound 28] | –
– | – | – | – | – | – | CNC(=O)Oc1cc(N2CCc3c(nc(OC[C@@H]4CCCN4C)nc3N3Cc4c(F)ncn4C[C@H]3C)C2)c2c(Cl)cccc2c1 [Compound 98] | IC50 [1, 12]: ≤ 0.1 µM; IC50 [4, 13]: ≤ 100 nM; IC50 [3, 14]: ≤ 0.1 µM; IC50 [7]: ≤ 100 nM
– | – | – | – | – | – | C[C@@H]1Cn2cnc(F)c2CN1c1nc(OC[C@@H]2CCCCN2C)nc2c1CCN(c1cccc3cccc(Cl)c13)C2 [Compound 99] | IC50 [1, 12]: ≤ 0.1 µM; IC50 [4, 13]: ≤ 100 nM; IC50 [3, 14]: ≤ 0.1 µM; IC50 [7]: ≤ 100 nM
– | – | – | – | – | – | CC(C)[C@@H](N)C(=O)Oc1cc(N2CCc3c(nc(OC[C@@H]4CCCN4C)nc3N3Cc4c(F)ncn4C[C@H]3C)C2)c2c(Cl)cccc2c1 [Compound 101] | IC50 [1, 12]: ≤ 0.1 µM; IC50 [4, 13]: ≤ 100 nM; IC50 [3, 14]: ≤ 0.1 µM; IC50 [7]: ≤ 100 nM
